Results on 2 compounds are retold here after US10662146B2, “Prodrugs of fencamfamine” (Praxis Bioresearch, LLC, priority 2015, dated 2020).

“And” between values parts separate entries of the source, which are not always exact repeats. Equal values may be shown once. Read-outs that look alike come from different tables or passages of the source.

Data set [1] in a line: Single dose oral PK study in male Sprague Dawley rats (plasma by LC-MS/MS). The data set is classed as in vivo. To be noted: for Plasma concentration of PRX-002 (−) Isomer: PRX-002 (−) Isomer oral 5 mg/kg b.w. As for the experimental part:
We describe here PK results of prodrugs of PRX-002 (−) or (+) isomers. All doses of prodrugs were administered such that they were equivalent to 5 mg/kg of PRX-002 (−) or (+) for oral studies and 2 mg/kg PRX-002 (−) or (+) for intravenous studies in male Sprague-Dawley (MSD) rats. Higher doses of up to 10 or 15 mg/kg [again equivalent to PRX-002 (−)] were used in some studies (as specified)]. Formulation preparation, dose administration and time of sample collection was as follows.
Test item was weighed [5 mg equivalent dose of PRX-002 for prodrugs] and transferred to a graduated tube. Then 10 μL of Tween 80 was added and vortexed mixed until the test item was completely mixed. Small volume of 0.5% (w/v) carboxymethylcellulose in water solution was then added dropwise with continuous vortex mixing until a uniform suspension was obtained. The final volume was then made up to 10 mL with 0.5% (w/v) carboxymethylcellulose in water with final strength of 0.5 mg/mL. […] This formulation was freshly prepared before the administration to animals.
(§1) Adult male Sprague Dawley Rats aged 8-10 weeks were used for the study. Fasted animals were administered test item by oral route with a dose of 5 mg/kg body weight at dose volume of 10 mL/kg body weight. Under mild isoflurane anesthesia, blood specimens were collected by retro-orbital puncture method using capillary tubes into pre-labeled tubes containing anticoagulant (K2EDTA-2 mg/mL blood) during the next 24 hours of post dose as mentioned in below table. For blood sampling at multiple time points, right and left eyes were used alternatively for blood collection. Collected blood specimens were centrifuged at 4000 rpm, 4° C. for 10 minutes and plasma were separated and stored at −80° C. until analysis.
Blood was collected as outlined in Table 39.1 (oral).
Test item PRX-P4-003 was weighed and transferred to a graduated tube. Then 12.42 μL of Tween 80 was added and vortexed mixed until the test item was completely mixed. Small volume of 0.5% (w/v) Carboxymethylcellulose in water solution was then added dropwise with continuous vortex mixing until a uniform suspension was obtained. The final volume was then made up to 12.42 mL with 0.5% (w/v) Carboxymethylcellulose in water with final strength of 1.0 mgA/mL. […] This formulation was freshly prepared before the administration to animals.
as §1, with “with a PRX-P4-003” for “test item”, “10” for “5”
Test item PRX-P5-006 was weighed and transferred to a graduated tube. Then 10 μL of Tween 80 was added and vortexed mixed until the test item was completely mixed. Small volume of 0.5% (w/v) Carboxymethylcellulose in water solution was then added dropwise with continuous vortex mixing until a uniform suspension was obtained. The final volume was then made up to 10 mL with 0.5% (w/v) Carboxymethylcellulose in water with final strength of 3.97 mg/mL. […] This formulation was freshly prepared before the administration to animals.
Adult male Sprague Dawley Rats aged 8-10 weeks were used for the study. Fasted animals were administered with a PRX-P5-006 by oral route with a dose of 15 mg/kg body weight at dose volume of 10 mL/kg body weight. […]

Data set [2] concerns spontaneous locomotor activity. In words: Spontaneous locomotor activity (sLMA), intravenous administration. The data set is classed as in vivo, Male SD rats. The following applies: i.v. 2 mg/kg, 90 min recording, vs vehicle. As for the experimental part:
Male SD rats were intravenously administered with PRX-002(−) (2 mg/kg) and prodrug PRX-P4-003 [(25.8 mg/kg, equivalent to 10 mg/kg of PRX-002 (−)], and vehicle just before sLMA test.
Vehicle was: 10% PEG 400 (v/v)+30% (v/v) of (50% w/v) Hydroxypropyl-ß-cyclodextrin in water+60% (v/v) sterile water for injection (SWFI): 1 ml/kg volume.
PRX-P4-003 solution was: 25.8 mg/ml PRX-P4-003 (25.8 mg/kg: equivalent to 10 mg/ml active drug, i.v. @volume of 1 ml/kg). 42.3 mg PRX-P4-003 was added to vehicle 1.639 ml, vortexed for 30 min under room temperature to get a uniform suspension solution, suspension solution was continuously stirred during dosage.
The PRX-P4-002(−) solution was: 2 mg/ml PRX-P4-002(−) (2 mg/kg, i.v.@volume of 1 ml/kg). 4.5 mg PRX-002(−) was added to 2.25 ml Vehicle, vortexed for 30 min under room temperature to get a clear solution, the solution was continuously stirred during dosage.
Rat was placed at the center of test chamber for the 90 min sLMA video recording. (n=3/group).

Where [3] appears, read: single oral dose 5 mg/kg body weight, individual animals (R0175, R0176, R0177), plasma, 5 mg/kg.

`CCN[C@@H]1[C@@H]2CC[C@@H](C2)[C@H]1c1ccccc1` [PRX-002 (−) Isomer, (1R,2R,3S,4S)—N-Ethyl-3-phenylbicyclo[2.2.1]heptan-2-amine, reference compound]: the “Plasma concentration of PRX-002 (−) Isomer” value worked out at 0.00 in data set [1] (0.00 h, mean); 0.00 in data set [1] (0.08 h, mean); 50.20 in data set [1] (0.25 h, mean); 159.35 in data set [1] (0.50 h, mean); 170.35 in data set [1] (1.00 h, mean); 101.07 in data set [1] (2.00 h, mean). For the same compound, the “Plasma concentration of PRX-002 (−) Isomer” value in data set [1] (4.00 h, mean) is reported as 21.30; in data set [1] (6.00 h, mean), 0.00; in data set [1] (24.00 h, mean), 0.00. Further, in data set [1] (PRX-002 (−) Isomer oral 5 mg/kg, mean), the “AUC% extrap of PRX-002 (−) Isomer” value is given as 12.904 ± 1.8410%. In data set [1] (male, Sprague Dawley, rat, in vivo, po, 5 mg/kg, PRX-002 (−) Isomer oral 5 mg/kg, mean, read-out: AUCinf of PRX-002 (−) Isomer), the AUC(0-inf) is 427 ± 122 ng·h/mL. Also, in data set [1] (male, Sprague Dawley, rat, in vivo, po, 5 mg/kg, PRX-002 (−) Isomer oral 5 mg/kg, mean, read-out: AUClast of PRX-002 (−) Isomer), the AUC(0-t) came to 371 ± 99.5 ng·h/mL. In addition, the Cmax in data set [1] (male, Sprague Dawley, rat, in vivo, po, 5 mg/kg, PRX-002 (−) Isomer oral 5 mg/kg, mean, read-out: Cmax of PRX-002 (−) Isomer) was found to be 176 ± 47.5 ng/mL. Besides, the MRT last in data set [1] (male, Sprague Dawley, rat, in vivo, po, 5 mg/kg, PRX-002 (−) Isomer oral 5 mg/kg, mean, read-out: MRTlast of PRX-002 (−) Isomer) is 88.4 ± 6.24 min. The half-life in data set [1] (male, Sprague Dawley, rat, in vivo, po, 5 mg/kg, PRX-002 (−) Isomer oral 5 mg/kg, mean, read-out: T1/2 of PRX-002 (−) Isomer (converted)) is 112 ± 7.92 min. Further, in data set [1] (male, Sprague Dawley, rat, in vivo, PRX-002 (−) Isomer oral 5 mg/kg, mean, read-out: Tmax of PRX-002 (−) Isomer), the Tmax came out at 50 ± 17.3 min. In data set [2], the “Spontaneous locomotor activity (sLMA): total traveling distance and duration” value is “significantly increased sLMA”.

For the compound `CCN[C@H]1[C@H]2CC[C@H](C2)[C@@H]1c1ccccc1` [PRX-002 (+) Isomer, (1S,2S,3R,4R)—N-Ethyl-3-phenylbicyclo[2.2.1]heptan-2-amine, reference compound], the “AUC% extrap of PRX-002(+) Isomer” value in data set [1] (PRX-002 (+) Isomer oral 5 mg/kg, mean, listed as PRX-002(+) Isomer, 5 mg/kg) turned out to be 18.063 ±11.646%; in data set [1] (PRX-002 (+) Isomer oral 5 mg/kg, mean, listed as PRX-002 (+isomer), 5 mg/kg) it was 18.063 ± 11.646%. Besides, the AUC(0-inf) was determined as 151 ± 68.6 ng·h/mL in data set [1] (male, Sprague Dawley, rat, in vivo, po, 5 mg/kg, single oral dose 5 mg/kg b.w., mean plasma PK parameters (mean ± SD), read-out: AUCinf); 151 ng·h/mL in data set [1] (male, Sprague Dawley, rat, in vivo, po, 5 mg/kg, single oral dose 5 mg/kg body weight, mean of N=3 (Table 39.24), read-out: AUCinf); 151 ± 68.6 ng·h/mL in data set [1] (male, Sprague-Dawley, rat, in vivo, po, 5 mg/kg, PRX-002 (+) Isomer oral 5 mg/kg, mean, read-out: AUCinf of PRX-002(+) Isomer). The AUC(0-t) in data set [1] (male, Sprague Dawley, rat, in vivo, po, 5 mg/kg, single oral dose 5 mg/kg b.w., mean plasma PK parameters (mean ± SD), read-out: AUClast) was determined as 128 ± 74.2 ng·h/mL; in data set [1] (male, Sprague Dawley, rat, in vivo, po, 5 mg/kg, single oral dose 5 mg/kg body weight, mean of N=3 (Table 39.24), read-out: AUClast), 128 ng·h/mL; in data set [1] (male, Sprague-Dawley, rat, in vivo, po, 5 mg/kg, PRX-002 (+) Isomer oral 5 mg/kg, mean, read-out: AUClast of PRX-002(+) Isomer), 128 ± 74.2 ng·h/mL. Also, the maximum concentration (Cmax) in data set [1] (male, Sprague Dawley, rat, in vivo, po, 5 mg/kg, single oral dose 5 mg/kg b.w., mean plasma PK parameters (mean ± SD), read-out: Cmax) is 107 ± 25.4 ng/mL; in data set [1] (male, Sprague Dawley, rat, in vivo, po, 5 mg/kg, single oral dose 5 mg/kg body weight, individual animals (R0175, R0176, R0177), plasma, read-out: Cmax), 135 ng/mL; in data set [1] (male, Sprague Dawley, rat, in vivo, po, 5 mg/kg, single oral dose 5 mg/kg body weight, mean of N=3 (Table 39.24), read-out: Cmax), 107 ng/mL; in data set [1] (male, Sprague-Dawley, rat, in vivo, po, 5 mg/kg, PRX-002 (+) Isomer oral 5 mg/kg, mean, read-out: Cmax of PRX-002(+) Isomer), 107 ± 25.4 ng/mL; in data set [1] (setting [3]) it was 85.44 ng/mL and 99.85 ng/mL. Also, the MRT last is 57.4 ± 16.1 min in data set [1] (male, Sprague Dawley, rat, in vivo, po, 5 mg/kg, single oral dose 5 mg/kg b.w., mean plasma PK parameters (mean ± SD), read-out: MRTlast); 75.6 min in data set [1] (male, Sprague Dawley, rat, in vivo, po, 5 mg/kg, single oral dose 5 mg/kg body weight, individual animals (R0175, R0176, R0177), plasma, read-out: MRTlast); 57.4 min in data set [1] (male, Sprague Dawley, rat, in vivo, po, 5 mg/kg, single oral dose 5 mg/kg body weight, mean of N=3 (Table 39.24), read-out: MRTlast); 57.4 ± 16.1 min in data set [1] (male, Sprague-Dawley, rat, in vivo, po, 5 mg/kg, PRX-002 (+) Isomer oral 5 mg/kg, mean, read-out: MRTlast of PRX-002(+) Isomer). Moreover, the half-life in data set [1] (male, Sprague Dawley, rat, in vivo, po, 5 mg/kg, single oral dose 5 mg/kg b.w., mean plasma PK parameters (mean ± SD), read-out: T1/2 (converted)) was 59.5 ± 13.7 min; in data set [1] (male, Sprague Dawley, rat, in vivo, po, 5 mg/kg, single oral dose 5 mg/kg body weight, individual animals (R0175, R0176, R0177), plasma, read-out: T1/2 (converted)) it was 64.2 min; in data set [1] (male, Sprague Dawley, rat, in vivo, po, 5 mg/kg, single oral dose 5 mg/kg body weight, mean of N=3 (Table 39.24), read-out: T1/2 (converted)) it was 59.5 min; in data set [1] (male, Sprague-Dawley, rat, in vivo, po, 5 mg/kg, PRX-002 (+) Isomer oral 5 mg/kg, mean, read-out: T1/2 of PRX-002(+) Isomer (converted)) it was 59.5 ± 13.7 min. For the same compound, the Tmax came to 30 min in data set [1] (male, Sprague Dawley, rat, in vivo, single oral dose 5 mg/kg body weight, individual animals (R0175, R0176, R0177), plasma, read-out: Tmax) and 30 min in data set [1] (male, Sprague-Dawley, rat, in vivo, PRX-002 (+) Isomer oral 5 mg/kg, mean, read-out: Tmax of PRX-002(+) Isomer). The AUC% extrap is 18.063 ± 11.646% in data set [1] (single oral dose 5 mg/kg b.w., mean plasma PK parameters (mean ± SD)); 6.89% and 30.13% and 17.17% in data set [1] (setting [3]); 18.063% in data set [1] (single oral dose 5 mg/kg body weight, mean of N=3 (Table 39.24)). Moreover, the AUCinf in data set [1] (setting [3]) was 229.43 ng·h/mL and 124.51 ng·h/mL and 100.4 ng·h/mL. The AUClast in data set [1] (setting [3]) was 213.62 ng·h/mL and 87 ng·h/mL and 83.16 ng·h/mL. Besides, the MRTlast in data set [1] (setting [3]) was 51.6 min and 45 min. Further, the T1/2 in data set [1] (setting [3]) was 70.2 min and 44.4 min.
